Here are results for 1 molecule from paper PMC11579541, “In vitro, in vivo, and in silico approaches for evaluating the preclinical DMPK profiles of ammoxetine, a novel chiral serotonin and norepinephrine reuptake inhibitor” (Frontiers in Pharmacology, 2024).

Data set [1] in a line: Hepatic microsome stability assay, MLM. The settings on record: monkey, liver microsomes, pH 7.4; 1 μmol/L, 0.2 g/L microsomes, NADPH. Format: in vitro ADME, monkey. On the procedure:
(§1) A hepatic microsome stability assay was conducted to investigate the metabolic disposition of ammoxetine. In this assay, 100 μL of ammoxetine (2.5 μmol/L) was incubated at 37°C with 100 μL of liver microsomes (RLM, DLM, MLM, or HLM) formulated in a 5 mmol/L dipotassium hydrogen phosphate (K2HPO4) buffer at pH 7.4. The concentration of microsomes was 0.5 g/L. To initiate the incubations, 50 μL of NADPH solution preincubated at 37°C was added. […] Parallel triplicate samples were prepared for each time point, including 0, 2, 5, 10, 15, 30, 60, 90, and 120 min. To stop the reactions at each time point, 250 μL of ice-cold precipitating agent (acetonitrile/methanol, 1:1, v/v) containing 500 ng/mL of L-phencynonate (IS) was added to the incubation mixture. The samples were vortexed for 2 min at 4°C and then centrifuged at 13,800×g for 10 min. The supernatants were analyzed using an LC-MS-MS approach. […]
(§2) In Formula 3, t1/2 (min) represents the half-life of ammoxetine in liver microsomes. It is calculated by dividing −0.693 by the resulting slope (k e) obtained from a natural logarithm plot of the remaining concentration of ammoxetine against incubation time. […]

The next data set concerns MLM. In words: Hepatic microsome stability assay, MLM. The settings on record: predicted hepatic clearance. Format: in vitro ADME, monkey. The procedure: as §1, §2
A further data set relates to P-gp (MDR1). In words: Bidirectional permeability measurements in MDCK-MDR1 monolayers. The conditions noted are these: dog, MDCK-MDR1, read-out: ER [Papp(B→A)⁄Papp(A→B)]. Format: in vitro ADME, canine. On the procedure:
(§3) MDCK-MDR1 cells at passage 17 were cultured in DMEM supplemented with 10% FBS, 1% glutamine, 100 U/mL penicillin/streptomycin, 1% NEAA, and 1 mmol/L sodium pyruvate. The cells were incubated overnight at 37°C with 5% CO2 and a relative humidity of 90%. Once the cells reached approximately 80% confluence, they were treated with a 0.25% trypsin/EDTA solution to dissociate the cells. Subsequently, the cells were seeded at a density of 5 × 10^5 cells/cm^2 in Millicell-96 well plates (Millipore, Burlington, USA). Prior to conducting the experiments, the integrity of the cell monolayer was confirmed by measuring transepithelial electrical resistance (TEER) using a Millicell ERS® meter (Millipore, Burlington, USA). A TEER value greater than 400 Ω cm^2 was required to ensure the formation and preservation of tight junctions.
(§4) Cell monolayers were preincubated with HBSS for 15 min at 37°C. To measure the A→B (apical side to basolateral side of monolayer) transporter, 400 μL of ammoxetine solution was added to the A-side (donor chamber), and 1,200 μL of HBSS solution was added to the B-side (receiver chamber). The B→A transporter was evaluated by adding 1,200 μL of ammoxetine solution to the B-side (donor chamber) and 400 μL of HBSS solution to the A-side (receiver chamber). At 0 h, 50 μL of the solution was taken from the donor chamber, and aliquots of 50 μL were taken from the receiver chamber at 15, 30, 45, 60, 90, and 120-min time intervals. The collected aliquots were immediately replaced with equal volumes of fresh blank HBSS. Ammoxetine transport was studied at three concentrations: 0.2, 1, and 5 μg/mL, with each concentration evaluated in triplicate. […] Ammoxetine samples collected from the receiver chambers at different time points were mixed with 150 μL of acetonitrile/methanol (1:1, v/v) solution containing 50 ng/mL L-phencynonate (IS). The mixtures were then vortexed for 1 min and centrifuged for 10 min at 13,800×g. The supernatants were analyzed using an LC-MS-MS method.
(§5) The apparent permeability coefficient ( Papp , cm/s) values for ammoxetine were determined using Equation 1: Papp=dQ/dt/A×C0 (1)
(§6) Here, dQ/dt represents the amount of drug transported to the receiver chamber within a specific time period, A is the surface area of the cell monolayer (=0.33 cm^2), and C0 is the initial concentration of ammoxetine.
(§7) In general, the involvement of a P-gp-mediated efflux mechanism was indicated if the efflux ratio ( ER ) value exceeded 1.5 ([Langthaler et al., 2024]). […]

Experiment in data set [2]: as above
Format: in vitro ADME, canine. The conditions noted are these: dog, MDCK-MDR1, 2 h. On the procedure: as §3, §4, §5, §6, §7

For a further data set, the system named is MDCK-MDR1 cells. The description is as above. The settings on record: from ER and verapamil effect. Format: in vitro ADME, canine. The procedure: as §3, §4, §5, §6, §7
The test system of the next data set is P-gp. The data set is described as above. The settings on record: dog, MDCK-MDR1, with verapamil 100 μmol/L, verapamil 100 μmol/L. Format: in vitro ADME, canine. On the procedure:
as §3, §4, §5, §6, §7

As a reminder, the half-life is the time in which the quantity being followed falls by half. What is called Papp A→B is how fast a substance crosses the layer from the apical side. High values mean fast passage, low ones slow passage. One may read the Papp B→A as the apparent permeability from the basolateral to the apical side of a cell layer. In data set [1], `CNCC[C@H](Oc1cccc2c1OCO2)c1cccs1` [ammoxetine] registered a half-life at 1 μmol/L of 7.57 ± 0.12 min. Moreover, in the data set on MLM, the CL h is 40.73 ± 0.04 mL/min/kg. Further, the efflux ratio at 120 min, 0.2 μg/mL with P-gp (MDR1) (0.2 μg/mL) stood at 1.67. In the data set on P-gp (MDR1) (1 μg/mL), the efflux ratio at 120 min, 1 μg/mL worked out at 1.74. Further, the efflux ratio at 120 min, 5 μg/mL in the data set on P-gp (MDR1) (5 μg/mL) was determined as 1.9. In data set [2] (0.2 μg/mL), this molecule gave a Papp A→B at 2 h, 0.2 μg/mL of 15.8 ± 2.83 ×10⁻⁶ cm/s and a Papp B→A at 2 h, 0.2 μg/mL of 26.5 ± 5.3 ×10⁻⁶ cm/s. Also, in data set [2] (1 μg/mL), the Papp A→B at 2 h, 1 μg/mL came out at 6.61 ± 0.555 ×10⁻⁶ cm/s and the Papp B→A at 2 h, 1 μg/mL worked out at 11.5 ± 2.93 ×10⁻⁶ cm/s. In data set [2] (5 μg/mL), this molecule returned a Papp A→B at 2 h, 5 μg/mL of 13.2 ± 1.26 ×10⁻⁶ cm/s and an apparent permeability from basolateral to apical (Papp B→A) at 2 h, 5 μg/mL of 25.2 ± 3.49 ×10⁻⁶ cm/s. Moreover, the P-gp substrate status entry with MDCK-MDR1 cells is on record as “likely a substrate of P-gp”. This molecule registered an apical-to-basolateral permeability (Papp A→B) at 120 min, 0.2 μg/mL in the data set on P-gp (0.2 μg/mL) of 27.2 ± 6.43 ×10⁻⁶ cm/s. Besides, in the data set on P-gp (1 μg/mL), the Papp A→B at 120 min, 1 μg/mL amounted to 28.8 ± 1.89 ×10⁻⁶ cm/s. This molecule also displayed a Papp A→B at 120 min, 5 μg/mL in the data set with P-gp (5 μg/mL) of 29.9 ± 3.29 ×10⁻⁶ cm/s.
